# Like-named read-outs stand apart in the source and are kept apart here.
# Assays:
# [1] = biological target: T1, CB1R (Mus musculus, UniProt P47746); format: cell-based; conditions: for agonist-stimulated enhancement in phosphoERK1/2 levels: over basal (Fig. 4); for agonist-stimulated maximal ERK1/2 phosphorylation: 5 min (Fig. 4B); for stimulated ERK1/2 phosphorylation: 5 min (Fig. 5B)
# [2] = biological target: T1, CB1R; assay: cell-based; conditions: for EC50: EC50, inhibition of forskolin-stimulated cAMP accumulation, 1 μM forskolin
# [3] = biological target: CB1R coupling to Gαi3 (Mus musculus, UniProt P47746); conditions: 100 nM
# CB1R coupling to Gαi3, sequence (P47746 whole entry): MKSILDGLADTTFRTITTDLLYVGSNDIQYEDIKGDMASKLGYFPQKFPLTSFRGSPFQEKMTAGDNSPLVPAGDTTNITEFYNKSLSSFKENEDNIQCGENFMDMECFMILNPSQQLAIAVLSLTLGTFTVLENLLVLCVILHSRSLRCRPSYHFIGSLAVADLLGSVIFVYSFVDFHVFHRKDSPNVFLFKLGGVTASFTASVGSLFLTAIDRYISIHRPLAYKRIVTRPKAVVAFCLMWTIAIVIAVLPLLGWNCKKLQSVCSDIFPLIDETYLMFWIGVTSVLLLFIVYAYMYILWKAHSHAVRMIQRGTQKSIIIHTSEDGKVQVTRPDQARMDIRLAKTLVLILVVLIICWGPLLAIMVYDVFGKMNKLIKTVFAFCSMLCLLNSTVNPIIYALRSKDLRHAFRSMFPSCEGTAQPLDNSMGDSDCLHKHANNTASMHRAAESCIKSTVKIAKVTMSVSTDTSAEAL
# [4] = biological target: CB1R coupling to Gαi2 (Mus musculus, UniProt P47746); conditions: 100 nM
# CB1R coupling to Gαi2, sequence (P47746 whole entry): as above
# [5] = biological target: CB1R coupling to Gαo (Mus musculus, UniProt P47746); conditions: 100 nM
# CB1R coupling to Gαo, sequence (P47746 whole entry): as above
# [6] = biological target: CB1R coupling to Gαi1 (Mus musculus, UniProt P47746); conditions: 100 nM
# CB1R coupling to Gαi1, sequence (P47746 whole entry): as above
# [7] = test system: CB1R; assay: On-cell-Western CB1R cell surface density in N18TG2 clones; format: cell-based, mouse
# [8] = WT, Control or CRIP1a KD membranes
# T1 sequence (P47746 whole entry): as above
structure (smiles),measurement,setting,value
"Cc1c(C(=O)c2cccc3ccccc23)c2cccc3c2n1C(CN1CCOCC1)CO3 (stereo not drawn) [WIN55212-2, [2,3-dihydro-5-methyl-3-[(4-morpholinyl)methyl]pyrrolo[1,2,3-de]-1,4-benzoxazin-6-yl](1-naphthyl)methanone]",agonist-stimulated enhancement in phosphoERK1/2 levels,"[1]; N18TG2 WT cells, 10 nM, 5 min",36±5%
"O=C(NN=Cc1ccc(O)c(O)c1)c1cc2ccccc2cc1O [Dynasore, 3-Hydroxynaphthalene-2-carboxylic acid (3,4-dihydroxybenzylidene)hydrazide]",effect on CP55940-stimulated phosphorylation of ERK1/2,"[1]; WT, CRIP1a-XS and KD clones, Dynasore 80 μM, 30 min preincubation, CP55940 10 nM",completely blocked
"CCCCC/C=C\C/C=C\C/C=C\C/C=C\CCCC(=O)N[C@H](C)CO [mAEA, (R)-N-(2-Hydroxy-1-methylethyl)-5Z,8Z,11Z,14Z-eicosatetraenamide]",effect on cAMP accumulation,"[2]; all clones, not altered by differences in the expression of CRIP1a (Fig. 7B)",concentration-dependent attenuation
same,ERK phosphorylation as share of the response observed with a CB1R full agonist,"[1]; N18TG2 WT cells, 10 nM, 5 min",~ 30%
same,agonist-stimulated enhancement in phosphoERK1/2 levels,"[1]; N18TG2 WT cells, 10 nM, 5 min",12±2%
C=C[C@@]1(C)CC(=O)[C@]2(O)[C@@]3(C)[C@@H](O)CCC(C)(C)[C@@H]3[C@H](O)[C@H](OC(C)=O)[C@@]2(C)O1 [forskolin],stimulation of cAMP accumulation over vehicle,"[2]; 1 μM, 4 min, WT, Control, CRIP1a XS, CRIP1a KD",to the same extent in all cell lines tested
"CCCCCCC(C)(C)c1ccc([C@@H]2C[C@H](O)CC[C@H]2CCCO)c(O)c1 [CP55940, (−)-cis-3-[2-Hydroxy-4-(1,1-dimethyl-heptyl)phenyl]-trans-4-(3-hydroxypropyl)cyclohexanol]",stimulated [35S]GTPγS binding to Gαi3,[3]; CRIP1a KD membranes,103±22 % over basal
same,stimulated [35S]GTPγS binding to Gαi3,[3]; CRIP1a XS membranes,10±12 % over basal
same,stimulated [35S]GTPγS binding to Gαi3,[3]; Control clone membranes,62±21 % over basal
same,stimulated [35S]GTPγS binding to Gαi3,[3]; WT membranes,79±18 % over basal
same,stimulation of [35S]GTPγS binding to Gαi2,[4]; CRIP1a XS membranes,753±316 % above basal
same,binding of Gαi2 to CB1R following treatment,[4]; [8],no differences
same,EC50,"[2]; CRIP1a KD cells, 4 min",0.2 nM
same,EC50,"[2]; CRIP1a over-expression (XS) cells, 4 min",1.6 nM
same,EC50,"[2]; N18TG2 WT cells, 4 min",3.4 nM
same,enhancement in [35S]GTPγS binding to Gαo,[5]; CRIP1a KD membranes,79±21 % over basal
same,enhancement in [35S]GTPγS binding to Gαo,[5]; CRIP1a XS membranes,4±3 % over basal
same,enhancement in [35S]GTPγS binding to Gαo,[5]; WT membranes,49±9 % over basal
same,agonist-stimulated maximal ERK1/2 phosphorylation,"[1]; CRIP1a KD2C cells, 10 nM",63±8%
same,agonist-stimulated maximal ERK1/2 phosphorylation,"[1]; CRIP1a KD2F cells, 10 nM",59±4%
same,stimulated ERK1/2 phosphorylation,"[1]; KD2C cells, 10 nM",68±4%
same,stimulated ERK1/2 phosphorylation,"[1]; KD2C cells, 100 nM",58±5%
same,stimulated ERK1/2 phosphorylation,"[1]; KD2F cells, 10 nM",73±5%
same,stimulated ERK1/2 phosphorylation,"[1]; KD2F cells, 100 nM",62±6%
same,agonist-stimulated enhancement in phosphoERK1/2 levels,"[1]; N18TG2 WT cells, 10 nM, 5 min",45±6%
same,time of rapid increase in phosphoERK1/2 levels,"[1]; WT, CRIP1a-XS and KD cells, 10 nM",≤ 5 min
same,stimulation of [35S]GTPγS binding to Gαi1,[6]; CRIP1a XS membranes,128±54 % above basal
same,binding of Gαi1 to CB1R following treatment,[6]; [8],no differences
"CCCCCCCCCCC[C@@H](C[C@@H]1OC(=O)[C@H]1CCCCCC)OC(=O)[C@H](CC(C)C)NC=O [THL, tetrahydrolipstatin]",effect on total or cell surface levels of CB1R,"[7]; THL pretreatment 1 μM, 2 h (data not shown)",did not change
C[C@@H]1C[C@@H]([C@H](O)CC2CC(=O)NC(=O)C2)C(=O)[C@@H](C)C1 [cycloheximide],effect on CB1R plasma membrane density,"[7]; CRIP1a XS or KD cells, 50 μM, 2 h pre-treatment (data not shown)",failed to alter
